Laboratory results reported in ChEMBL document CHEMBL1143215, “Orally active esters of dihydroartemisinin: Synthesis and antimalarial activity against multidrug-resistant Plasmodium yoelii in mice” (Bioorg Med Chem Lett, 2008).
Activity calls are given as the source filed them. The rule behind the calls is not given here.

Legend:
[1] = test system: Plasmodium yoelii nigeriensis; experiment: Survival in multidrug-resistant Plasmodium yoelii nigeriensis infected Swiss mice (Mus musculus) at 12 mg/kg peroral dose after 28 days; type: functional
[2] = test system: Plasmodium yoelii nigeriensis; experiment: Reduced parasitemia in multidrug-resistant Plasmodium yoelii nigeriensis infected Swiss mice (Mus musculus) at 12 mg/kg peroral dose after 4 days; type: functional; design: scale not given: the % may be the effect or the level left; conditions: route oral
[3] = test system: Plasmodium yoelii nigeriensis; experiment: Antimalarial activity as reduced parasitemia day 4 against multidrug-resistant Plasmodium yoelii nigeriensis infected Swiss mice (Mus musculus) at 24 mg/kg/day peroral dose over 4 days; type: functional; design: scale not given: the % may be the effect or the level left; conditions: route oral
[4] = Partition coefficient, log P of the compound; type: physicochemical; conditions: octanol/water
[5] = test system: Plasmodium yoelii nigeriensis; experiment: Reduced parasitemia in multidrug-resistant Plasmodium yoelii nigeriensis infected Swiss mice (Mus musculus) at 48 mg/kg peroral dose after 4 days; type: functional; design: scale not given: the % may be the effect or the level left; conditions: route oral
[6] = Chemical stability in acidic solution containing tetrahydrofuran and 10% aqueous HCl after 96 hrs; type: physicochemical; conditions: acidic solution of tetrahydrofuran and 10% aqueous HCl; read-out: Stability

Structure (SMILES) | Activity ([1]; route oral) [%] | Activity [2] [%] | Activity [3] [%] | logP [4] | Activity [5] [%] | remaining at 96 h [6] [%] | Activity [1]
C[C@H]1[C@H](OC(=O)CC23CC4CC(CC(C4)C2)C3)O[C@@H]2O[C@]3(C)CC[C@H]4[C@H](C)CC[C@@H]1[C@@]24OO3 | 20 | 100 | 100 | 5.99 | 100 | – | –
C[C@H]1[C@H](OC(=O)C2c3ccccc3-c3ccccc32)O[C@@H]2O[C@]3(C)CC[C@H]4[C@H](C)CC[C@@H]1[C@@]24OO3 | – | 100 | 100 | 6.61 | 100 | 80 | –
C[C@H]1[C@H](OC(=O)c2ccc(-c3ccccc3)cc2)O[C@@H]2O[C@]3(C)CC[C@H]4[C@H](C)CC[C@@H]1[C@@]24OO3 | – | – | 100 | 6.95 | 100 | – | –
C[C@H]1[C@H](OC(=O)CC2c3ccccc3-c3ccccc32)O[C@@H]2O[C@]3(C)CC[C@H]4[C@H](C)CC[C@@H]1[C@@]24OO3 | – | 100 | 100 | 6.79 | 100 | – | inactive
CCO[C@H]1O[C@@H]2O[C@@]3(C)CC[C@H]4[C@H](C)CC[C@@H]([C@H]1C)[C@@]24OO3 [ARTEMOTIL] | – | – | 100 | – | 100 | – | –
C[C@H]1[C@H](OCC23CC4CC(CC(C4)C2)C3)O[C@@H]2O[C@]3(C)CC[C@H]4[C@H](C)CC[C@@H]1[C@@]24OO3 | – | 100 | – | – | – | – | –
C[C@H]1[C@H](OC(=O)COc2ccc(-c3ccccc3)cc2)O[C@@H]2O[C@]3(C)CC[C@H]4[C@H](C)CC[C@@H]1[C@@]24OO3 | – | 100 | 100 | 6.53 | 100 | – | –
C[C@H]1[C@H](OC(=O)C23CC4CC(CC(C4)C2)C3)O[C@@H]2O[C@]3(C)CC[C@H]4[C@H](C)CC[C@@H]1[C@@]24OO3 | – | 100 | 100 | 6.05 | 100 | – | –
C[C@H]1[C@H](OC(=O)CC2C3CC4CC(C3)CC2C4)O[C@@H]2O[C@]3(C)CC[C@H]4[C@H](C)CC[C@@H]1[C@@]24OO3 (some centres not stated) | – | 100 | 100 | 5.85 | 100 | – | –
C[C@H]1[C@H](OC(=O)CCC23CC4CC(CC(C4)C2)C3)O[C@@H]2O[C@]3(C)CC[C@H]4[C@H](C)CC[C@@H]1[C@@]24OO3 | – | 100 | 100 | 6.41 | 100 | – | –
C[C@H]1[C@H](OC(=O)CCC(=O)O)O[C@@H]2O[C@@]3(C)CC[C@H]4[C@H](C)CC[C@@H]1[C@@]24OO3 [ARTESUNATE] | – | – | 100 | – | 100 | – | –
C[C@H]1[C@H](OC(=O)COc2ccccc2-c2ccccc2)O[C@@H]2O[C@]3(C)CC[C@H]4[C@H](C)CC[C@@H]1[C@@]24OO3 | – | 100 | 100 | 6.53 | 100 | – | –
C[C@H]1[C@H](OCc2ccc(-c3ccccc3)cc2)O[C@@H]2O[C@]3(C)CC[C@H]4[C@H](C)CC[C@@H]1[C@@]24OO3 | – | 100 | – | – | – | – | –
C[C@H]1[C@H](OC(=O)Cc2ccc(-c3ccccc3)cc2)O[C@@H]2O[C@]3(C)CC[C@H]4[C@H](C)CC[C@@H]1[C@@]24OO3 | – | – | 100 | 6.89 | 100 | – | –
